This test has as its system 817829-284-R-J1-PDC complex spheroids, viability. Put plainly: Anticancer human tumor 817829-284-R-J1-PDC patient-derived colon adenocarcinoma cell line growth inhibition [GQUAD]. Particulars: for viability, T/C: stronger effect = lower value. An excerpt:
DNA G-quadruplex Stabilizer Agents in Combinations in Complex Spheroids
A high-throughput screen of multi-cell type tumor spheroids was designed to identify active combinations of DNA G-quadruplex stabilizer agents and targeted small molecules. Complex spheroids include a stromal component modeled by human endothelial cells (HUVEC) and fibroblasts modeled by human mesenchymal stem cells (MSCs). The concentration ranges selected for each drug and investigational agent were based upon clinically achievable concentrations if the clinical Cmax of the agent was known.
Compounds. The drugs and investigational agents: pidnarulex (CX-5461; NSC782164), APTO-253 (NSC789042), BRACO-19 (NSC847499), peposertib (NSC802822), ceralasertib (NSC780249), elimusertib (NSC800525), camonsertib (NSC841442), AZD-1390 (NSC803789), olaparib (NSC753686), talazoparib (NSC767125), ART-558 (NSC835418), sotorasib (NSC818433), MRTX-1133 (NSC836407), SN-38 (NSC673596), topotecan (NSC609699), etoposide (NSC141540), doxorubicin (NSC123127), gemcitabine (NSC613327), 5-fluorouracil (NSC19893), paclitaxel (NSC125973), vemurafenib (NSC761431), panobinostat (NSC761190), R-306465 (JNJ-16241199; NSC773264), adavosertib (NSC754352), TP-3654 (NSC805149), carboplatin (NSC241240), KSQ-4279 (NSC840948), and staurosporine (NSC755774) were obtained from the National Cancer Institute (NCI) Developmental Therapeutics Program Chemical Repository (34). The FDA-approved anticancer drug set is available from the NCI Developmental Therapeutics Program. […] The stock solutions were prepared in dimethyl sulfoxide (DMSO, Sigma-Aldrich, St. Louis, MO, cat. D2650) at 800-fold the tested concentration and stored at -70 degrees C prior to their use. All drugs and investigational agents were tested over a range starting from a high concentration at or near the clinical Cmax and decreasing in half-log increments. If the clinical Cmax for an agent had not been determined, the highest concentration tested was 10 microM.
2.3 Cell Culture. All cells were maintained in an incubator at 37 degrees C and 5% CO2 with 95% humidity. The PDC lines were cultured according to standard operating procedures established by the NCI PDMR. All PDCs were thawed and cultured in Matrigel-coated flasks prepared with a working solution of 1X Ham's F-12 nutrient mix, without supplementation (Invitrogen, cat. 11765054), 100 U/mL penicillin-streptomycin (Invitrogen, cat. 15140122), and 2.5% Matrigel (Corning Inc., cat. 354248) for the first three passages. The 857933-349-R-J2-PDC line was cultured in 6C/Colon 1B media, which includes advanced DMEM/F-12 (Thermo Fisher Scientific, cat. 12634028), 10 mM HEPES (Thermo Fisher Scientific, cat. 15630080), 1X GlutaMAX supplement (Thermo Fisher Scientific, cat. 35050061), 0.1 mg/mL primocin (InvivoGen, cat. ant-pm-2), 10% defined fetal bovine serum, heat inactivated (HyClone Laboratories Inc., cat. SH30070.03HI), 50% L-WRN conditioned media (ATCC, cat. CRL-3276), 1.25 mM N-Acetyl-L-cysteine (Sigma-Aldrich, cat. A9165), 10 mM nicotinamide (Sigma-Aldrich, cat. N0636), 1X B-27 supplement (Thermo Fisher Scientific, cat. 17504044), 1X N-2 supplement (Thermo Fisher Scientific, cat. 17502048), 10 microM Y-27632 dihydrochloride (Tocris Bioscience, cat. 1254), and 50 ng/mL human EGF recombinant protein (Thermo Fisher Scientific, cat. PHG0311). The 485176-168-R4-J1-PDC line was cultured in Panc media, which includes all 6C/Colon 1B media components plus 100 ng/mL human FGF-10 (Thermo Fisher Scientific, cat. 100-26), 500 nM SB-431542 (Selleckchem, cat. S1067), and gastrin (Tocris, cat. 3006).
[…]

pIC50: −log10 of the molar value. Several values for one entry are separate records, joined by “and”; a condition that tells them apart may be missing. Equal entries are not always repeated.
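Further: spheroids exposed to agents for 7 days before readout.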
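Wherever viability, T/C is given: percent viability relative to DMSO vehicle control taken as 100%.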

`CN(C)c1ccc(Nc2c3ccc(NC(=O)CCN4CCCC4)cc3nc3cc(NC(=O)CCN4CCCC4)ccc23)cc1`: the viability, T/C reads like this: (compound 0.0316 µM) 102% [middle of 12 runs]; (compound 0.1 µM) 99.2% [middle of 12 runs]; (compound 0.316 µM) 97.7% [middle of 12 runs]; (compound 1 µM) 102% [middle of 12 runs]; (compound 3.16 µM) 100% [middle of 12 runs]; (compound 10 µM) 93.7% [middle of 12 runs]. For the same compound, the negative logarithm of the IC50 (pIC50) (compound alone, run of 02/26/2024) is less than 5.00.

`C=CC(=O)N1CCN(c2nc(=O)n(-c3c(C)ccnc3C(C)C)c3nc(-c4c(O)cccc4F)c(F)cc23)C(C)C1` (stereo not drawn): the viability, T/C by setting is: (compound 0.0316 µM) 94.6% and 98.7% and 113%; (compound 0.1 µM) 87.2% and 97.6% and 96.2%; (compound 0.316 µM) 96% and 99.3% and 113%; (compound 1 µM) 84.4% and 93.2% and 89.2%; (compound 3.16 µM) 108% and 102% and 112%; (compound 10 µM) 98.3% and 81.2% and 102%. The pIC50 (curve of compound) is less than 5.00.

Consider `Nc1ccn(C2OC(CO)C(O)C2(F)F)c(=O)n1` (stereo not drawn) + Cc1cnc(CNC(=O)c2c(=O)c3ccc(N4CCCN(C)CC4)nc3n3c2sc2ccccc23)cn1, for which the pIC50 reads like this: (curve of first compound, second compound 0.0316 µM) more than 7.50; (curve of first compound, second compound 0.1 µM) more than 7.50; (curve of first compound, second compound 0.316 µM) more than 7.50; (curve of first compound, second compound 1 µM) more than 7.50; (curve of first compound, second compound 3.16 µM) more than 7.50; (curve of first compound, second compound 10 µM) more than 7.50. Also, the viability, T/C is, setting by setting: (second compound 0.0316 µM, first compound 0.0316 µM) 17.2%; (second compound 0.0316 µM, first compound 0.1 µM) 7.44%; (second compound 0.0316 µM, first compound 0.316 µM) 7.25%; (second compound 0.0316 µM, first compound 1 µM) 5.51%; (second compound 0.0316 µM, first compound 3.16 µM) 5.09%; (second compound 0.0316 µM, first compound 10 µM) 3.11%. The viability, T/C is 18% (second compound 0.1 µM, first compound 0.0316 µM); 10.7% (second compound 0.1 µM, first compound 0.1 µM); 5.49% (second compound 0.1 µM, first compound 0.316 µM); 7.04% (second compound 0.1 µM, first compound 1 µM); 6.51% (second compound 0.1 µM, first compound 3.16 µM); 4.03% (second compound 0.1 µM, first compound 10 µM). Further, the viability, T/C by setting is: (second compound 0.316 µM, first compound 0.0316 µM) 15.3%; (second compound 0.316 µM, first compound 0.1 µM) 11.4%; (second compound 0.316 µM, first compound 0.316 µM) 8.25%; (second compound 0.316 µM, first compound 1 µM) 7.77%; (second compound 0.316 µM, first compound 3.16 µM) 4.4%; (second compound 0.316 µM, first compound 10 µM) 3.63%. Further, the viability, T/C by setting is: (second compound 1 µM, first compound 0.0316 µM) 15.6%; (second compound 1 µM, first compound 0.1 µM) 10.3%; (second compound 1 µM, first compound 0.316 µM) 7.69%; (second compound 1 µM, first compound 1 µM) 5.93%; (second compound 1 µM, first compound 3.16 µM) 4.41%; (second compound 1 µM, first compound 10 µM) 2.57%. Besides, the viability, T/C (second compound 3.16 µM, first compound 0.0316 µM) was 15%; the viability, T/C (second compound 3.16 µM, first compound 0.1 µM) is 8.99%; the viability, T/C (second compound 3.16 µM, first compound 0.316 µM) was 5.76%; the viability, T/C (second compound 3.16 µM, first compound 1 µM) was 5.67%; the viability, T/C (second compound 3.16 µM, first compound 3.16 µM) was 1%; the viability, T/C (second compound 3.16 µM, first compound 10 µM) was 0.14%. For the same compound, the viability, T/C is, setting by setting: (second compound 10 µM, first compound 0.0316 µM) 0.09%; (second compound 10 µM, first compound 0.1 µM) 0.13%; (second compound 10 µM, first compound 0.316 µM) 0.12%; (second compound 10 µM, first compound 1 µM) 0.12%; (second compound 10 µM, first compound 3.16 µM) 0.14%; (second compound 10 µM, first compound 10 µM) 0.15%.

Take `O=C(c1cc(Cc2n[nH]c(=O)c3ccccc23)ccc1F)N1CCN(C(=O)C2CC2)CC1`: the viability, T/C by setting is: (compound 0.0316 µM) 113% and 106% and 116%; (compound 0.1 µM) 87.2% and 96.7% and 103%; (compound 0.316 µM) 103% and 99% and 90.6%; (compound 1 µM) 91% and 94.4% and 89.3%; (compound 3.16 µM) 89.1% and 97.4% and 95.1%; (compound 10 µM) 57.6% and 60.7% and 49%. In addition, the negative-log IC50 (pIC50) (curve of compound) is less than 5.00.
